Earlier results on one compound are cited in patent US12409155B1, “Ready to use LET formulations” (QuVa Pharma, Inc., priority 2021, dated 2025).

The structures appear in SMILES notation.

The conditions of the data set: Handbook.

In the case of `O=C(O)CC(O)(CC(=O)O)C(=O)O` [citric acid], the pKa2 is listed as 4.76.
